Source: ChEMBL document CHEMBL1135518 (J Med Chem, 2002)

Key:
[1] = target: 5-hydroxytryptamine receptor 2A (Rattus norvegicus, UniProt P14842); test: The binding affinity at 5-hydroxytryptamine 2A receptor was determined using [3H]ketanserin
[2] = target: T1, Adrenergic receptor alpha-2 (Rattus norvegicus, UniProt P22086+P19328+P22909); test: The binding affinity at the Alpha-2 adrenergic receptor determined using [3H]RX-821002; Not tested; format: protein assay
T1 sequence (P22086 whole entry): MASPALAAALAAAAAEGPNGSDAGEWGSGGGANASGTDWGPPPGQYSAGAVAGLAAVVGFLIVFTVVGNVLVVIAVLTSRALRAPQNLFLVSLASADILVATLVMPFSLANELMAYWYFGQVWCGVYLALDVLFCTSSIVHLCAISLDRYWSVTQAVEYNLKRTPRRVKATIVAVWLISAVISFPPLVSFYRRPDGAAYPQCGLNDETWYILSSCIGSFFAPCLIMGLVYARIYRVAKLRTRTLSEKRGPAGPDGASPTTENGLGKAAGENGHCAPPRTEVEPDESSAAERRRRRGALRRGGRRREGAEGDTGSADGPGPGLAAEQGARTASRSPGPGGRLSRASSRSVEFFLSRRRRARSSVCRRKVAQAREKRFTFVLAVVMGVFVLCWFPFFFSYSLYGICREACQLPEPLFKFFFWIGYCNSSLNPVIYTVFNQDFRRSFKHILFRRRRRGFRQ
T1 sequence (P19328 whole entry): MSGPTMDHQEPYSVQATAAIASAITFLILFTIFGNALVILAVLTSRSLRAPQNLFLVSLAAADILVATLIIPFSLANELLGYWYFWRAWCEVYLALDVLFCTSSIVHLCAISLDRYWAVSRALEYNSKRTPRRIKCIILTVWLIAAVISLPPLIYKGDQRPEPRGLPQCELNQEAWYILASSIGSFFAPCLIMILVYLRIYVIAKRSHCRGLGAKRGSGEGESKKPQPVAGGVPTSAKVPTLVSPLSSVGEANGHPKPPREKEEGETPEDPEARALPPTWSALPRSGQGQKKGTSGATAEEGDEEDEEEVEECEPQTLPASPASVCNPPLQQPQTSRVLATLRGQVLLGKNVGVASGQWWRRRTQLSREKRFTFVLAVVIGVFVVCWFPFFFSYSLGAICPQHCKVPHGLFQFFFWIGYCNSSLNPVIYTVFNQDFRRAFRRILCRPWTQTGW
T1 sequence (P22909 whole entry): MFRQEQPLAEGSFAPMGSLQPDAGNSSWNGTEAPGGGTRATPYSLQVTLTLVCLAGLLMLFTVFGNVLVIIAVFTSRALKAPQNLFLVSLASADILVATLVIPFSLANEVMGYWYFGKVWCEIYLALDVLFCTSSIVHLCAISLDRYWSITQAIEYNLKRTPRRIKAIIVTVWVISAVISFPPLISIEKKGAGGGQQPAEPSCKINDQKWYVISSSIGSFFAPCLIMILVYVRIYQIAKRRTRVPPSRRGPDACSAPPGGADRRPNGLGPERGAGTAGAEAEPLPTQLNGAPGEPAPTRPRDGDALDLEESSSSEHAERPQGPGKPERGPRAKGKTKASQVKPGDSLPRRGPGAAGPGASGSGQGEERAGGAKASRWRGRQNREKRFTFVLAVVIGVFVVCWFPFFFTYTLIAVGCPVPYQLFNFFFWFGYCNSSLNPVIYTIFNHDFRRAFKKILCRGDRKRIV

[3] = target: T2, Adrenergic receptor alpha-1 (Rattus norvegicus, UniProt P15823+P23944+P43140); test: The binding affinity at Alpha-1 adrenergic receptor determined using [3H]prazosin; format: protein assay
T2 sequence (P15823 whole entry): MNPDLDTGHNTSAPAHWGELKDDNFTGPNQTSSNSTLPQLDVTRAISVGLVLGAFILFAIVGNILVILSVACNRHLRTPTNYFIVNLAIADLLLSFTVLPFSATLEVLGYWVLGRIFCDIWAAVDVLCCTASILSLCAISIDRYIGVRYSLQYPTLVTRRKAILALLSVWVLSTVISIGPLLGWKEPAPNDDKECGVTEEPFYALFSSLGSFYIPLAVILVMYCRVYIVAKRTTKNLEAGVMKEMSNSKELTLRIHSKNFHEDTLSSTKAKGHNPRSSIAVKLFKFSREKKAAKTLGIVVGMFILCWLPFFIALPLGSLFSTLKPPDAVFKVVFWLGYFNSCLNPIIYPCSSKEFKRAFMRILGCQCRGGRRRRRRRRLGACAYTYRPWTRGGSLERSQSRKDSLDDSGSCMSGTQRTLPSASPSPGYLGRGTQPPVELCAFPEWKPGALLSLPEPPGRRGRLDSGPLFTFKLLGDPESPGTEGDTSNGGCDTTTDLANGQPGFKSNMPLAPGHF
T2 sequence (P23944 whole entry): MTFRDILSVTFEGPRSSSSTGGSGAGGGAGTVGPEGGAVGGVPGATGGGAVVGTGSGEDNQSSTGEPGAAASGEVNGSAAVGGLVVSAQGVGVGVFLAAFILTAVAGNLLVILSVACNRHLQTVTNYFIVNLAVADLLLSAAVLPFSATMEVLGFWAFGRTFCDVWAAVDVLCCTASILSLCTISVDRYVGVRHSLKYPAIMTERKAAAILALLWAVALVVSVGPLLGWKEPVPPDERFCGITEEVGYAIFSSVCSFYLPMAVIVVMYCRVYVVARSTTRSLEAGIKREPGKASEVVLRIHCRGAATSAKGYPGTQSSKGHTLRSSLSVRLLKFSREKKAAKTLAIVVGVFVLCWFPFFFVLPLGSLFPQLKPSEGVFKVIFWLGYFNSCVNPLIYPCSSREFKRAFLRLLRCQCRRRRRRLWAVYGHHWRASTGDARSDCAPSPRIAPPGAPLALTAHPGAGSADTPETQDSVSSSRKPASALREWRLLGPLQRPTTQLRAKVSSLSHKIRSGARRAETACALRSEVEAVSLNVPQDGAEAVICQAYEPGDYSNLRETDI
T2 sequence (P43140 whole entry): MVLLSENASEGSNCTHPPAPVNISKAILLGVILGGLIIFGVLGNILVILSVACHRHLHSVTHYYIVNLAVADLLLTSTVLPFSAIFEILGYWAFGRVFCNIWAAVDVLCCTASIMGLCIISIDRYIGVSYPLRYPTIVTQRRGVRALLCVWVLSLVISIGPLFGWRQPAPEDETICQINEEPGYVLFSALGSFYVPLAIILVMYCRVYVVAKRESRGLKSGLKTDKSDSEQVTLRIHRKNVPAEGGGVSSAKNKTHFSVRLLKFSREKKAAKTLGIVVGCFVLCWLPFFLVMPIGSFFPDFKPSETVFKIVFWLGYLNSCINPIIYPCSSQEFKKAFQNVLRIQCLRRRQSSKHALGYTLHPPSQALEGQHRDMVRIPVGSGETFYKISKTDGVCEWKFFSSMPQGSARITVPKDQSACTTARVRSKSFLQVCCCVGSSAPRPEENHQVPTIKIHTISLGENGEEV

[4] = The binding affinity at the Histamine H1 receptor determined using [3H]pyrilamine; design: species or system Cavia porcellus
[5] = target: T3, 5-hydroxytryptamine receptor 2C (Rattus norvegicus, UniProt P08909); test: The binding affinity at 5-hydroxytryptamine 2C receptor was determined using [3H]mesulergine
T3 sequence (P08909 whole entry): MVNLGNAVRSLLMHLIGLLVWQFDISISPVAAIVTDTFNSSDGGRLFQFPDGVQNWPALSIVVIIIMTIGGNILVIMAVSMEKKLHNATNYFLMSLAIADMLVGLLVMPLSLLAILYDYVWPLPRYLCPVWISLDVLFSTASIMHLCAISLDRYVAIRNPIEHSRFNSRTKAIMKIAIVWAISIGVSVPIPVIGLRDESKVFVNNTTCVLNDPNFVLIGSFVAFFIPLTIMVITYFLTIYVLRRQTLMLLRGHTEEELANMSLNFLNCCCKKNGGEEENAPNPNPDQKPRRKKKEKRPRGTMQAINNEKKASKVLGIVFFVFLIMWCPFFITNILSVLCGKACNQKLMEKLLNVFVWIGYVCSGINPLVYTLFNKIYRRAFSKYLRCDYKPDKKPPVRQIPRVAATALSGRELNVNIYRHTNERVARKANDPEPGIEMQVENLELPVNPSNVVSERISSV

[6] = target: Norepinephrine transporter (Rattus norvegicus, UniProt Q9WTR4); test: The binding affinity at the Norepinephrine transporter reuptake sites determined using competition binding assay
Rattus norvegicus [7] = test: The increase in the extracellular levels of DOPAC in the rat ventral hippocampus at a dose of 5.0 mg/kg sc measured by in vivo microdialysis; format: functional; conditions: route subcutaneous
D(4) dopamine receptor = target: T4, D(4) dopamine receptor (Homo sapiens, UniProt P21917); test: The binding affinity at the Dopamine receptor D4 determined using [3H]YM-09151-2
T4 sequence (P21917 whole entry): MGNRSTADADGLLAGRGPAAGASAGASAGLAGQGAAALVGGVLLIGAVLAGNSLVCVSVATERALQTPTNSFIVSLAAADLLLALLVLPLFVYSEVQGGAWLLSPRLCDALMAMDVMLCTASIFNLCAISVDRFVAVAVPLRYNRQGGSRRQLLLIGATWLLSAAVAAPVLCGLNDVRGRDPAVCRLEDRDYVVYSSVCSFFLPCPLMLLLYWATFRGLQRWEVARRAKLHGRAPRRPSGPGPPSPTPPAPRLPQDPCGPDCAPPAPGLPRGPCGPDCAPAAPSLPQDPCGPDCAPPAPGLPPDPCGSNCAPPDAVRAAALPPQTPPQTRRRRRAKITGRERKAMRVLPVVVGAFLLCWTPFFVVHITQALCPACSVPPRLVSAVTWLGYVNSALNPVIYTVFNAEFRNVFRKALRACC

Rattus norvegicus [8] = test: The increase in the extracellular levels of 5-HT in the rat ventral hippocampus at a dose of 5.0 mg/kg sc measured by in vivo microdialysis; format: functional; conditions: route subcutaneous
[9] = target: Sodium-dependent serotonin transporter (Rattus norvegicus, UniProt P31652); test: The binding affinity at the 5-HT reuptake sites determined using competition binding assay
Chain of Sodium-dependent serotonin transporter (P31652 whole entry): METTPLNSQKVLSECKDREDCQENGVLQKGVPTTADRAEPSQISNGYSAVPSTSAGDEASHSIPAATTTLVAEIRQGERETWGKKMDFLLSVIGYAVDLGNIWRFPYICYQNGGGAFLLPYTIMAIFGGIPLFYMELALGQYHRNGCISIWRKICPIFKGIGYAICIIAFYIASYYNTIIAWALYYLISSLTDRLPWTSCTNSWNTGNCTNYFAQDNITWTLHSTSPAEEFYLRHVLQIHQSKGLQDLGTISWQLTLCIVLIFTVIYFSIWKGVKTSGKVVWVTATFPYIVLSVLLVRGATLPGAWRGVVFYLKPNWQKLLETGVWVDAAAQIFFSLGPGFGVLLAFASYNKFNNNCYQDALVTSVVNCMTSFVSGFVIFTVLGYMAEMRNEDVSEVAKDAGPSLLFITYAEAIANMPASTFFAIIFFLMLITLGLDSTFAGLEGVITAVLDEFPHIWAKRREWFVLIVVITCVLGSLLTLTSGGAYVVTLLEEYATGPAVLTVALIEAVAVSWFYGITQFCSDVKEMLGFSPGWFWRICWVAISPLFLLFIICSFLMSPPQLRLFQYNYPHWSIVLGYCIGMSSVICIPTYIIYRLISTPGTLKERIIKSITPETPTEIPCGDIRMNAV

Chain of Norepinephrine transporter (Q9WTR4 whole entry): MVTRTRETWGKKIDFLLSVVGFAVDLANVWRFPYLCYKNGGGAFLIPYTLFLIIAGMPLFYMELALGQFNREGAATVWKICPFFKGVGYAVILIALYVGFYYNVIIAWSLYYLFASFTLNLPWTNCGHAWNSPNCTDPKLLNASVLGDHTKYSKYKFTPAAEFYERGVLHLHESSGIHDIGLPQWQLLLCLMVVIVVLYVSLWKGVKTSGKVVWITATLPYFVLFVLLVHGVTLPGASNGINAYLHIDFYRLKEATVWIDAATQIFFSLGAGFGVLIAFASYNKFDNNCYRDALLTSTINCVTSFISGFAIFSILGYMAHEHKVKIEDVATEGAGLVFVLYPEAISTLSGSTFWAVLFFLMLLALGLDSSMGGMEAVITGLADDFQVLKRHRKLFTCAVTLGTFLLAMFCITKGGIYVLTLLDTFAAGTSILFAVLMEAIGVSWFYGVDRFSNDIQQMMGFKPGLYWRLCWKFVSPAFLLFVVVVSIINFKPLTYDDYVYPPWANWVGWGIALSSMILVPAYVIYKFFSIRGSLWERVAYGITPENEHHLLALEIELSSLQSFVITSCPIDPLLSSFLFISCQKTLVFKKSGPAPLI
Chain of 5-hydroxytryptamine receptor 2A (P14842 whole entry): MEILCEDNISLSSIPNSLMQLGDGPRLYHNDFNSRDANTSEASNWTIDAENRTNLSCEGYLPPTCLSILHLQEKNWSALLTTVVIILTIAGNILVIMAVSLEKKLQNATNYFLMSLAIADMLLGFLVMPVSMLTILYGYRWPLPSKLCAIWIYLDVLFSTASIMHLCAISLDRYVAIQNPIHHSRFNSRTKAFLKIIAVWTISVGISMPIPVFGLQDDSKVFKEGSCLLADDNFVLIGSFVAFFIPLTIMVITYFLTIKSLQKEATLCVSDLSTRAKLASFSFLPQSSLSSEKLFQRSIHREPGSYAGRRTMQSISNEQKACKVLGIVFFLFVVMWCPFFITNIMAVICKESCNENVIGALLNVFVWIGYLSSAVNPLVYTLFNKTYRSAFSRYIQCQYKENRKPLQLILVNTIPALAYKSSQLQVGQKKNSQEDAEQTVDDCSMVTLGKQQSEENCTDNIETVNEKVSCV

SMILES	IC50 [1]	IC50 [2]	Ki [3]	Ki [4]	Ki [5]	IC50 [6]	Increase (Rattus norvegicus [7])	Ki (D(4) dopamine receptor)	Increase (Rattus norvegicus [8])	IC50 [9]
CN1CCN2c3c(cccc3OS(=O)(=O)C(F)(F)F)Cc3ccccc3C2C1 (racemic)	277 nM	1000 nM	–	–	–	–	–	–	–	–
CN1CCN2c3c(O)cccc3Cc3ccccc3C2C1 (racemic)	12 nM	1000 nM	1000 nM	21 nM	2 nM	–	–	–	–	–
CN1CCN2c3ccccc3Cc3ccccc3C2C1 (racemic) [MIANSERIN]	–	–	–	4.2 nM	–	22 nM	160%	–	–	–
CN1CCN2c3ncccc3Cc3ccccc3C2C1 (racemic) [MIRTAZAPINE]	–	–	1050 nM	5.1 nM	5.5 nM	260 nM	200%	> 25 nM	180%	> 100 nM
